{"source": "patent US9682114B2", "about": "“Plant extracts of Ptaeroxylon obliquum nand compounds having antimicrobial and antihelminthic activity” (UNIVERSITY OF PRETORIA, priority 2013, dated 2017)", "data": [{"compound": "CC(=O)OCC1=CCc2c(cc(O)c3c(=O)cc(C)oc23)OC1", "note": "[Compound 2, 8,11-Dihydro-5-hydroxy-12-hydroxymethyl-2-methyl-4H-pyrano[2,3-g][1]benzoxepin-4-one 12-O-acetate]", "values": [{"measurement": "Cytotoxicity LC50", "setting": "Vero monkey kidney cells", "value": "> 200", "unit": "µg/mL"}, {"measurement": "Cytotoxicity LC50", "setting": "human liver (C3A) cells", "value": "> 200", "unit": "µg/mL"}]}]}
